Experimental data taken from PubChem BioAssay AID248 (DTP/NCI, 2004).
Where “and” joins values, the source holds several entries; their conditions need not be identical. Equal values may be shown once. Toxic doses and inconclusive results are not listed.

Tested on: L1210 leukemia ip in BDF1 mice, survival T/C
Assay: NCI In Vivo Anticancer Drug Screen. Data for tumor model L1210 Leukemia (intraperitoneal) in B6D2F1 (BDF1) mice
Conditions: higher = longer survival
Procedure, shortened: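 Mice bearing the transplanted tumor received compound or vehicle. Survival of the treated group was divided by that of the vehicle-treated control group to give the ratio.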

[1] = endpoint: mean survival time, dose: 25.0 mg/kg/injection, schedule: Q01DX009 (ip), vehicle: Klucel (hydroxypropylcellulose) (HPC)
[2] = endpoint: mean survival time, dose: 100.0 mg/kg/injection, schedule: Q01DX009 (ip), vehicle: Klucel (hydroxypropylcellulose) (HPC)

Structure (SMILES): CCCCN=Cc1ccccc1O.CCCCN=Cc1ccccc1O.[Cu]
- T/C (endpoint: mean survival time, dose: 6.25 mg/kg/injection, schedule: Q01DX009 (ip), vehicle: Klucel (hydroxypropylcellulose) (HPC)): 91 % of control
- T/C (endpoint: mean survival time, dose: 12.5 mg/kg/injection, schedule: Q04DX002 (ip), vehicle: Klucel (hydroxypropylcellulose) (HPC)): 107 % of control
- T/C [1]: 97 % of control
- T/C (endpoint: mean survival time, dose: 25.0 mg/kg/injection, schedule: Q04DX002 (ip), vehicle: Klucel (hydroxypropylcellulose) (HPC)): 89 % of control
- T/C (endpoint: mean survival time, dose: 100.0 mg/kg/injection, schedule: Q04DX002 (ip), vehicle: Klucel (hydroxypropylcellulose) (HPC)): 104 % of control

Structure (SMILES): CCOC(=O)C(C(=O)OCC)C1c2ccccc2NC(=O)c2ccccc21 (configuration not stated)
- T/C [2]: 100 % of control
- T/C (endpoint: mean survival time, dose: 100.0 mg/kg/injection, schedule: Q04DX003 (ip), vehicle: Klucel (hydroxypropylcellulose) (HPC)): 90 % of control
- T/C (endpoint: mean survival time, dose: 200.0 mg/kg/injection, schedule: Q01DX009 (ip), vehicle: Klucel (hydroxypropylcellulose) (HPC)): 100 % of control
- T/C (endpoint: mean survival time, dose: 200.0 mg/kg/injection, schedule: Q04DX003 (ip), vehicle: Klucel (hydroxypropylcellulose) (HPC)): 90 % of control
- T/C (endpoint: mean survival time, dose: 400.0 mg/kg/injection, schedule: Q01DX009 (ip), vehicle: Klucel (hydroxypropylcellulose) (HPC)): 91 % of control
- T/C (endpoint: mean survival time, dose: 400.0 mg/kg/injection, schedule: Q04DX003 (ip), vehicle: Klucel (hydroxypropylcellulose) (HPC)): 88 % of control

Structure (SMILES): N[C@H](C(=O)O)[C@H]1ON=C(Cl)[C@@H]1O
- T/C (endpoint: mean survival time, dose: 0.78 mg/kg/injection, schedule: Q01DX009 (ip), vehicle: saline): 108 % of control
- T/C (endpoint: mean survival time, dose: 5.5 mg/kg/injection, schedule: Q01DX009 (ip), vehicle: Klucel (hydroxypropylcellulose) (HPC)): 108 % of control
- T/C [1]: 118 % of control
- T/C (endpoint: mean survival time, dose: 50.0 mg/kg/injection, schedule: Q01DX009 (ip), vehicle: Klucel (hydroxypropylcellulose) (HPC)): 150 % of control
- T/C (endpoint: mean survival time, dose: 66.0 mg/kg/injection, schedule: Q01DX009 (ip), vehicle: Klucel (hydroxypropylcellulose) (HPC)): 151 % of control
- T/C [2]: 154 % of control and 158 % of control
- T/C (endpoint: mean survival time, dose: 150.0 mg/kg/injection, schedule: Q01DX009 (ip), vehicle: Klucel (hydroxypropylcellulose) (HPC)): 104 % of control
- T/C (endpoint: median survival time, dose: 4.0 mg/kg/injection, schedule: Q03HX008 (ip), vehicle: saline): 123 % of control
- T/C (endpoint: median survival time, dose: 4.0 mg/kg/injection, schedule: Q03HX024 (ip), vehicle: saline): 154 % of control
- T/C (endpoint: median survival time, dose: 6.25 mg/kg/injection, schedule: Q03HX016 (ip), vehicle: saline): 154 % of control
- T/C (endpoint: median survival time, dose: 6.25 mg/kg/injection, schedule: Q03HX024 (ip), vehicle: saline): 189 % of control
- T/C (endpoint: median survival time, dose: 8.0 mg/kg/injection, schedule: Q01DX009 (sc), vehicle: saline): 118 % of control
- T/C (endpoint: median survival time, dose: 8.0 mg/kg/injection, schedule: Q03HX016 (ip), vehicle: saline): 153 % of control
- T/C (endpoint: median survival time, dose: 12.5 mg/kg/injection, schedule: Q03HX016 (ip), vehicle: saline): 152 % of control
- T/C (endpoint: median survival time, dose: 12.5 mg/kg/injection, schedule: Q03HX024 (ip), vehicle: saline): 170 % of control
- T/C (endpoint: median survival time, dose: 16.0 mg/kg/injection, schedule: Q03HX016 (ip), vehicle: saline): 150 % of control
- T/C (endpoint: median survival time, dose: 25.0 mg/kg/injection, schedule: Q01DX001 (ip), vehicle: saline): 113 % of control
- T/C (endpoint: median survival time, dose: 25.0 mg/kg/injection, schedule: Q01DX009 (ip), vehicle: saline): 171 % of control
- T/C (endpoint: median survival time, dose: 25.0 mg/kg/injection, schedule: Q03HX016 (ip), vehicle: saline): 160 % of control
- T/C (endpoint: median survival time, dose: 25.0 mg/kg/injection, schedule: Q08DX002 (ip), vehicle: saline): 104 % of control
- T/C (endpoint: median survival time, dose: 32.0 mg/kg/injection, schedule: Q01DX001 (ip), vehicle: saline): 105 % of control
- T/C (endpoint: median survival time, dose: 32.0 mg/kg/injection, schedule: Q01DX001 (sc), vehicle: saline): 105 % of control
- T/C (endpoint: median survival time, dose: 32.0 mg/kg/injection, schedule: Q03HX016 (ip), vehicle: saline): 150 % of control
- T/C (endpoint: median survival time, dose: 32.0 mg/kg/injection, schedule: Q03HX024 (ip), vehicle: saline): 153 % of control
- T/C (endpoint: median survival time, dose: 32.0 mg/kg/injection, schedule: Q04DX003 (ip), vehicle: saline): 122 % of control
- T/C (endpoint: median survival time, dose: 32.0 mg/kg/injection, schedule: Q08DX002 (ip), vehicle: saline): 111 % of control
- T/C (endpoint: median survival time, dose: 50.0 mg/kg/injection, schedule: Q01DX001 (ip), vehicle: saline): 113 % of control
- T/C (endpoint: median survival time, dose: 50.0 mg/kg/injection, schedule: Q03HX016 (ip), vehicle: saline): 158 % of control
- T/C (endpoint: median survival time, dose: 50.0 mg/kg/injection, schedule: Q08DX002 (ip), vehicle: saline): 108 % of control
- T/C (endpoint: median survival time, dose: 64.0 mg/kg/injection, schedule: Q01DX001 (ip), vehicle: saline): 100 % of control
- T/C (endpoint: median survival time, dose: 64.0 mg/kg/injection, schedule: Q01DX001 (sc), vehicle: saline): 106 % of control
- T/C (endpoint: median survival time, dose: 64.0 mg/kg/injection, schedule: Q01DX009 (oral), vehicle: saline): 115 % of control
- T/C (endpoint: median survival time, dose: 64.0 mg/kg/injection, schedule: Q01DX009 (sc), vehicle: saline): 151 % of control
- T/C (endpoint: median survival time, dose: 64.0 mg/kg/injection, schedule: Q03HX024 (ip), vehicle: saline): 153 % of control
- T/C (endpoint: median survival time, dose: 64.0 mg/kg/injection, schedule: Q04DX003 (ip), vehicle: saline): 122 % of control
- T/C (endpoint: median survival time, dose: 64.0 mg/kg/injection, schedule: Q08DX002 (ip), vehicle: saline): 113 % of control
- T/C (endpoint: median survival time, dose: 100.0 mg/kg/injection, schedule: Q01DX001 (ip), vehicle: saline): 104 % of control
- T/C (endpoint: median survival time, dose: 100.0 mg/kg/injection, schedule: Q01DX009 (ip), vehicle: saline): 169 % of control
- T/C (endpoint: median survival time, dose: 100.0 mg/kg/injection, schedule: Q03HX016 (ip), vehicle: saline): 152 % of control
- T/C (endpoint: median survival time, dose: 100.0 mg/kg/injection, schedule: Q03HX024 (ip), vehicle: saline): 202 % of control
- T/C (endpoint: median survival time, dose: 100.0 mg/kg/injection, schedule: Q04DX003 (ip), vehicle: saline): 122 % of control
- T/C (endpoint: median survival time, dose: 100.0 mg/kg/injection, schedule: Q08DX002 (ip), vehicle: saline): 114 % of control
- T/C (endpoint: median survival time, dose: 128.0 mg/kg/injection, schedule: Q01DX001 (ip), vehicle: saline): 108 % of control
- T/C (endpoint: median survival time, dose: 128.0 mg/kg/injection, schedule: Q01DX001 (sc), vehicle: saline): 104 % of control
- T/C (endpoint: median survival time, dose: 128.0 mg/kg/injection, schedule: Q01DX009 (ip), vehicle: saline): 151 % of control
- T/C (endpoint: median survival time, dose: 128.0 mg/kg/injection, schedule: Q01DX009 (sc), vehicle: saline): 163 % of control
- T/C (endpoint: median survival time, dose: 128.0 mg/kg/injection, schedule: Q03HX024 (ip), vehicle: saline): 152 % of control
- T/C (endpoint: median survival time, dose: 128.0 mg/kg/injection, schedule: Q04DX003 (ip), vehicle: saline): 108 % of control
- T/C (endpoint: median survival time, dose: 128.0 mg/kg/injection, schedule: Q08DX002 (ip), vehicle: saline): 102 % of control
- T/C (endpoint: median survival time, dose: 200.0 mg/kg/injection, schedule: Q01DX001 (ip), vehicle: saline): 108 % of control
- T/C (endpoint: median survival time, dose: 200.0 mg/kg/injection, schedule: Q01DX009 (ip), vehicle: saline): 104 % of control
- T/C (endpoint: median survival time, dose: 200.0 mg/kg/injection, schedule: Q08DX002 (ip), vehicle: saline): 104 % of control
- T/C (endpoint: median survival time, dose: 256.0 mg/kg/injection, schedule: Q01DX001 (ip), vehicle: saline): 104 % of control
- T/C (endpoint: median survival time, dose: 256.0 mg/kg/injection, schedule: Q01DX001 (oral), vehicle: saline): 108 % of control and 109 % of control
- T/C (endpoint: median survival time, dose: 256.0 mg/kg/injection, schedule: Q01DX001 (sc), vehicle: saline): 104 % of control
- T/C (endpoint: median survival time, dose: 256.0 mg/kg/injection, schedule: Q01DX009 (ip), vehicle: saline): 153 % of control
- T/C (endpoint: median survival time, dose: 256.0 mg/kg/injection, schedule: Q01DX009 (oral), vehicle: saline): 115 % of control and 90 % of control
- T/C (endpoint: median survival time, dose: 256.0 mg/kg/injection, schedule: Q08DX002 (ip), vehicle: saline): 99 % of control
- T/C (endpoint: median survival time, dose: 400.0 mg/kg/injection, schedule: Q01DX001 (ip), vehicle: saline): 117 % of control
- T/C (endpoint: median survival time, dose: 400.0 mg/kg/injection, schedule: Q08DX002 (ip), vehicle: saline): 122 % of control
- T/C (endpoint: median survival time, dose: 512.0 mg/kg/injection, schedule: Q01DX001 (ip), vehicle: saline): 105 % of control
- T/C (endpoint: median survival time, dose: 512.0 mg/kg/injection, schedule: Q01DX001 (oral), vehicle: saline): 115 % of control and 118 % of control
- T/C (endpoint: median survival time, dose: 512.0 mg/kg/injection, schedule: Q01DX001 (sc), vehicle: saline): 107 % of control
- T/C (endpoint: median survival time, dose: 512.0 mg/kg/injection, schedule: Q01DX009 (oral), vehicle: saline): 87 % of control
- T/C (endpoint: median survival time, dose: 512.0 mg/kg/injection, schedule: Q08DX002 (ip), vehicle: saline): 102 % of control
- T/C (endpoint: median survival time, dose: 1024.0 mg/kg/injection, schedule: Q01DX001 (ip), vehicle: saline): 114 % of control
- T/C (endpoint: median survival time, dose: 1024.0 mg/kg/injection, schedule: Q01DX001 (oral), vehicle: saline): 114 % of control
- T/C (endpoint: median survival time, dose: 1024.0 mg/kg/injection, schedule: Q01DX001 (sc), vehicle: saline): 109 % of control
- T/C (endpoint: median survival time, dose: 1024.0 mg/kg/injection, schedule: Q08DX002 (ip), vehicle: saline): 118 % of control

Structure (SMILES): O=C(Nc1cccc2ccccc12)OC1CCCCC1Br (configuration not stated)
- T/C (endpoint: mean survival time, dose: 200.0 mg/kg/injection, schedule: Q01DX001 (ip), vehicle: saline with Tween-80): 89 % of control
- T/C (endpoint: mean survival time, dose: 400.0 mg/kg/injection, schedule: Q01DX001 (ip), vehicle: saline with Tween-80): 89 % of control
